Measurements published in ChEMBL document CHEMBL5212743, “Selectivity Literature for EUbOPEN Chemogenomics Library wave 3” (2023).

Columns and labels:
[1] = target: 5-hydroxytryptamine receptor 2B (Homo sapiens, UniProt P41595); assay: Selectivity interaction (GPCR panel (PDSP screen)) EUB0000710a HTR2B
[2] = target: T1, Serine/threonine-protein kinase TAO3 (Homo sapiens) (UniProt Q9H2K8); assay: Selectivity interaction (KinomeScan (DiscoverX)) EUB0000710a TAOK3; details: at 1 µM
T1 sequence (whole entry): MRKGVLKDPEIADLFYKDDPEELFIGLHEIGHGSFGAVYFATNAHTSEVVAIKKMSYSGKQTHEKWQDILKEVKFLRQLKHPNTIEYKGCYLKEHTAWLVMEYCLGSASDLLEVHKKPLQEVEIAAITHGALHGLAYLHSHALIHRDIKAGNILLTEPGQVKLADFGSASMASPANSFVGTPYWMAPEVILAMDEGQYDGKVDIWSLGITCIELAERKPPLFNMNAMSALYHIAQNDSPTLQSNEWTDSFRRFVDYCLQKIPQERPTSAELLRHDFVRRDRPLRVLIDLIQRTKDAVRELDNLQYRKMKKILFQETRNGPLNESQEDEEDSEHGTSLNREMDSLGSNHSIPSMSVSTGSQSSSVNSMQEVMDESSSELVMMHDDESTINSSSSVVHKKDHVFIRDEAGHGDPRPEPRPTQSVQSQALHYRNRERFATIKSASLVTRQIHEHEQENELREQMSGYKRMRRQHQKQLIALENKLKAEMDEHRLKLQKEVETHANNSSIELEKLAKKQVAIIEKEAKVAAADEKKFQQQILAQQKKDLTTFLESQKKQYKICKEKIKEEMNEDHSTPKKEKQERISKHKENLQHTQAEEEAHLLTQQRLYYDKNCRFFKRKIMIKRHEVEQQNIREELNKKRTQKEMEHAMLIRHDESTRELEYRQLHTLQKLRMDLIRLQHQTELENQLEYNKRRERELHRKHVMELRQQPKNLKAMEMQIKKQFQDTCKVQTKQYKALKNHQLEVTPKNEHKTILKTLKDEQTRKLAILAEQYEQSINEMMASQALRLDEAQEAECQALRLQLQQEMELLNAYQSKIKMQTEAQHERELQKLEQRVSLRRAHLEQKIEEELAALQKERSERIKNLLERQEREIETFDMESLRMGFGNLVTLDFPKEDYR

[3] = target: T2, Myosin-IIIb (Homo sapiens) (UniProt Q8WXR4); assay: Selectivity interaction (KinomeScan (DiscoverX)) EUB0000710a MYO3B; details: at 1 µM
T2 sequence (whole entry): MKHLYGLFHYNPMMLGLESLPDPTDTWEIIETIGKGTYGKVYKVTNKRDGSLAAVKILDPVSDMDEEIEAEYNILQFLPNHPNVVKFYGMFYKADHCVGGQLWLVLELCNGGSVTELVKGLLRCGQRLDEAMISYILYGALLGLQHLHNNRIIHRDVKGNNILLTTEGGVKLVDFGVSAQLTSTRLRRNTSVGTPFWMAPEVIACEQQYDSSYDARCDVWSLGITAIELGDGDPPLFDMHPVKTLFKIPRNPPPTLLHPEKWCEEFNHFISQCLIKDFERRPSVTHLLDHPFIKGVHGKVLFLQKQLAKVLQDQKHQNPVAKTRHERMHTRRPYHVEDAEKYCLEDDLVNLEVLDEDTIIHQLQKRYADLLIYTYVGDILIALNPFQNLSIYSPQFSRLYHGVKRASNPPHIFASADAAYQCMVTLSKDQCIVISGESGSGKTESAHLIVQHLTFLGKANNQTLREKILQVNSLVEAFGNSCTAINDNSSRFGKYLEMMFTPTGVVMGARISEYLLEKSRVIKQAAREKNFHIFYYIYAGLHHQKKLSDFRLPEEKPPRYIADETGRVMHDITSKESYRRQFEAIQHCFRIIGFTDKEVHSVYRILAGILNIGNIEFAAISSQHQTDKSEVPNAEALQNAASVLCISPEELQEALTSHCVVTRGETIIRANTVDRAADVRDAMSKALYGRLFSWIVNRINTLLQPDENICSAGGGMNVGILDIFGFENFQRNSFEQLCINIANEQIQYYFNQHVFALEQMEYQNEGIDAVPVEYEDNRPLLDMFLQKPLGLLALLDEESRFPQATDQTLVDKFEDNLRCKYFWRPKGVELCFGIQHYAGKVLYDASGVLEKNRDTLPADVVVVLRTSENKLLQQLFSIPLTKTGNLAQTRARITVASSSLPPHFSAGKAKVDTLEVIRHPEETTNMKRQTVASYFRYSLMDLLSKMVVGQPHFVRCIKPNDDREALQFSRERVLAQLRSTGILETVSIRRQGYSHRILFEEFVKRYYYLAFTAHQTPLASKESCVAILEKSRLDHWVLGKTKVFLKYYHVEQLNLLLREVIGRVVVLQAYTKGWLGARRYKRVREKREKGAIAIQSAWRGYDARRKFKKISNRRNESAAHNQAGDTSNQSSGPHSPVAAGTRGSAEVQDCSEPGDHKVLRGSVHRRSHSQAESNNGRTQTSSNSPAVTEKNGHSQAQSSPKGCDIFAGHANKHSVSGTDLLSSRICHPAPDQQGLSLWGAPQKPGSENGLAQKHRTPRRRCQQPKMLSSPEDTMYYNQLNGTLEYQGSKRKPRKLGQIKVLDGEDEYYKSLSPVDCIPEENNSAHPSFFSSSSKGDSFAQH

[4] = test system: Epidermal growth factor receptor (Homo sapiens), P00533 [L861Q]; assay: Selectivity interaction (KinomeScan (DiscoverX)) EUB0000710a EGFR; details: at 1 µM
[5] = target: Serine/threonine-protein kinase TNNI3K (Homo sapiens) (UniProt Q59H18); assay: Selectivity interaction (KinomeScan (DiscoverX)) EUB0000710a TNNI3K; details: at 1 µM
[6] = target: Epithelial discoidin domain-containing receptor 1 (Homo sapiens, UniProt Q08345); assay: Selectivity interaction (KinomeScan (DiscoverX)) EUB0000710a DDR1; details: at 1 µM
[7] = test system: Phosphatidylinositol 4,5-bisphosphate 3-kinase catalytic subunit alpha isoform (Homo sapiens), P42336 [Q546K]; assay: Selectivity interaction (KinomeScan (DiscoverX)) EUB0000710a PIK3CA; details: at 1 µM
[8] = target: MAP kinase-interacting serine/threonine-protein kinase 2 (Homo sapiens, UniProt Q9HBH9); assay: Selectivity interaction (KinomeScan (DiscoverX, competition-binding assay)) EUB0000637a MKNK2
[9] = target: Dual specificity protein kinase CLK1 (Homo sapiens, UniProt P49759); assay: Selectivity interaction (KinomeScan (DiscoverX, competition-binding assay)) EUB0000637a CLK1
[10] = target: Vascular endothelial growth factor receptor 1 (Homo sapiens, UniProt P17948); assay: Selectivity interaction (KinomeScan (DiscoverX, competition-binding assay)) EUB0000637a FLT1
[11] = target: T3, Gamma-aminobutyric acid receptor subunit alpha-1 (Homo sapiens, UniProt P14867); assay: Selectivity interaction (GPCR panel (PDSP screen)) EUB0000326a GABRA1
T3 sequence (P14867 whole entry): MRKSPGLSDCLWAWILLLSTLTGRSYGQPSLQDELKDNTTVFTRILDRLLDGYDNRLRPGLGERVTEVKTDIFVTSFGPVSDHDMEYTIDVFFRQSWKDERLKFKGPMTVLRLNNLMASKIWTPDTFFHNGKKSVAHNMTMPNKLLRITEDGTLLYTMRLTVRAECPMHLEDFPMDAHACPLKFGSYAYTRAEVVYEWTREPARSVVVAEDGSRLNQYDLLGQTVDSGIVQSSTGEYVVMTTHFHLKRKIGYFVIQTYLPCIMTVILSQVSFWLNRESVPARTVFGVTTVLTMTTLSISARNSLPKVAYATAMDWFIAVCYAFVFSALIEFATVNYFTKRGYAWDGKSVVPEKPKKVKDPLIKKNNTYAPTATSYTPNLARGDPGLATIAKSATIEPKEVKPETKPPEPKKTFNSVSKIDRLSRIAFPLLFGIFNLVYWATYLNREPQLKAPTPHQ

[12] = target: Phosphatidylinositol 4,5-bisphosphate 3-kinase catalytic subunit alpha isoform (Homo sapiens, UniProt P42336); assay: Selectivity interaction (KinomeScan (DiscoverX)) EUB0000326a PIK3CA; details: Inhibition of LnCaP-FGC cell proliferation > […] µM (PMID: 28953875);, Selectivity Remarks Screened at 1 µM (in vitro, >[…]-fold less potent then probe A-485), Selectivity Source Knowledge ht
[13] = target: High affinity nerve growth factor receptor (Homo sapiens, UniProt P04629); assay: Selectivity interaction (KinomeScan (DiscoverX)) EUB0000326a NTRK1; details: Inhibition of LnCaP-FGC cell proliferation > […] µM (PMID: 28953875);, Selectivity Remarks Screened at 1 µM (in vitro, >[…]-fold less potent then probe A-485), Selectivity Source Knowledge ht
[14] = target: T4, Ephrin type-B receptor 6 (Homo sapiens) (UniProt O15197); assay: Selectivity interaction (KinomeScan (DiscoverX)) EUB0000326a EPHB6; details: Inhibition of LnCaP-FGC cell proliferation > […] µM (PMID: 28953875);, Selectivity Remarks Screened at 1 µM (in vitro, >[…]-fold less potent then probe A-485), Selectivity Source Knowledge ht
T4 sequence (whole entry): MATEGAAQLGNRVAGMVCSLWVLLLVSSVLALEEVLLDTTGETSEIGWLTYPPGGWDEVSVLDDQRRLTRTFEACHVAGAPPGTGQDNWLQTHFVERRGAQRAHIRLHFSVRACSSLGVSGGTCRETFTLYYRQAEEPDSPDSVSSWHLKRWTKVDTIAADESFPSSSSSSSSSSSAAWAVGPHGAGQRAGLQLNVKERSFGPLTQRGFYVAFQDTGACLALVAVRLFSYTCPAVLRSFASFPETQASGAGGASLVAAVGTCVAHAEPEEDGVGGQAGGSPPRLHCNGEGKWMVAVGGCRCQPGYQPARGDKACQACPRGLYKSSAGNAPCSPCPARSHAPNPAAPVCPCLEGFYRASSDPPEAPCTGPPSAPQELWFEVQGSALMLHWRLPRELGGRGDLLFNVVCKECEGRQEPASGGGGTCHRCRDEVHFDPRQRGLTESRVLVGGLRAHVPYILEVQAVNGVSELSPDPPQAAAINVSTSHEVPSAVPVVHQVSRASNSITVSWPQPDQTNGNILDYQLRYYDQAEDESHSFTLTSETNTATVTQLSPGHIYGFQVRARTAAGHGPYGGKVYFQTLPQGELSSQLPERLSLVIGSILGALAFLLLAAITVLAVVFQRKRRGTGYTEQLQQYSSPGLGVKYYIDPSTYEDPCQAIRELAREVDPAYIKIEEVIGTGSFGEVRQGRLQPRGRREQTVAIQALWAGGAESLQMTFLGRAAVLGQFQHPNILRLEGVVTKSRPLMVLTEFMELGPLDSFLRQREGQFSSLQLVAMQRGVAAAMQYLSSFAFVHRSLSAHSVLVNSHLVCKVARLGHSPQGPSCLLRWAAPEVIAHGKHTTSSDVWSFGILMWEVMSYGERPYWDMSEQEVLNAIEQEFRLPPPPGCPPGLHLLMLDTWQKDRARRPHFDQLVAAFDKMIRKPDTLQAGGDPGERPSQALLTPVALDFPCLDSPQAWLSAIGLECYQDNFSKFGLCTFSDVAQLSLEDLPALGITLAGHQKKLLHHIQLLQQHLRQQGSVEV

5-hydroxytryptamine receptor 2B, sequence (P41595 whole entry): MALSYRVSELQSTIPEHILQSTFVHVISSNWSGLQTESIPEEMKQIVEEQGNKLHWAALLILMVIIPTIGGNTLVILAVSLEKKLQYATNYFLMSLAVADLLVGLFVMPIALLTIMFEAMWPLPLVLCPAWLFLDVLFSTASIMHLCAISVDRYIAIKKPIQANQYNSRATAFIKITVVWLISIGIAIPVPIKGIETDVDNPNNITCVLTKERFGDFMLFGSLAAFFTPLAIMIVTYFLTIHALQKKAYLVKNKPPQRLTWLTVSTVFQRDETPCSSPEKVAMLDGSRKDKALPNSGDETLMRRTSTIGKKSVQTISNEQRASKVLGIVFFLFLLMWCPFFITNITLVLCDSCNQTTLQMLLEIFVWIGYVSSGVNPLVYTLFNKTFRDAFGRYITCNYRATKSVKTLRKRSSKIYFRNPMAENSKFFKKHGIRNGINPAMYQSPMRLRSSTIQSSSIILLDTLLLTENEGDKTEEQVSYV
Serine/threonine-protein kinase TNNI3K (Homo sapiens), sequence (Q59H18 whole entry, the tested form may be a part): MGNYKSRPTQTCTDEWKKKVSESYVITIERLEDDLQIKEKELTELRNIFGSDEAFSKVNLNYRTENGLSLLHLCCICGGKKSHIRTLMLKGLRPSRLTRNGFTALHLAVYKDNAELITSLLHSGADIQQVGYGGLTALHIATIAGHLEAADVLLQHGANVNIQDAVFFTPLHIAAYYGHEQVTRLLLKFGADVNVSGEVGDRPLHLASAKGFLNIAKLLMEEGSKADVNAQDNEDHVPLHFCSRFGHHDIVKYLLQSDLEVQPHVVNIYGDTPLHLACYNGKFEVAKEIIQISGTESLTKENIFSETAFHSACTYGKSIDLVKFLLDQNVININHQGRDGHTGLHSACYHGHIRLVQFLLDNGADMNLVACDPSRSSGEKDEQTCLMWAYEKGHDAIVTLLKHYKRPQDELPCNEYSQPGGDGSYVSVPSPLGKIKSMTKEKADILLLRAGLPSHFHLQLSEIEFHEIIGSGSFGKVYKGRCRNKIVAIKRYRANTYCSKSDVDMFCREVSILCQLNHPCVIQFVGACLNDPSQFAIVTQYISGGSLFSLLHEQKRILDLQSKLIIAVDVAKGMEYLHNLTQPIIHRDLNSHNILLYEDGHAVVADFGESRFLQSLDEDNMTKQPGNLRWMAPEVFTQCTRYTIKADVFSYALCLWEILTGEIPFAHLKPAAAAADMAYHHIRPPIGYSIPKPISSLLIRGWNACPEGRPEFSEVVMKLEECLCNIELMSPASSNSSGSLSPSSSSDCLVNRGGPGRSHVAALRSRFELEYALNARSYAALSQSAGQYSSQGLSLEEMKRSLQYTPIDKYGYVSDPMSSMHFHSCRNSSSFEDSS
Vascular endothelial growth factor receptor 1, sequence (P17948 whole entry): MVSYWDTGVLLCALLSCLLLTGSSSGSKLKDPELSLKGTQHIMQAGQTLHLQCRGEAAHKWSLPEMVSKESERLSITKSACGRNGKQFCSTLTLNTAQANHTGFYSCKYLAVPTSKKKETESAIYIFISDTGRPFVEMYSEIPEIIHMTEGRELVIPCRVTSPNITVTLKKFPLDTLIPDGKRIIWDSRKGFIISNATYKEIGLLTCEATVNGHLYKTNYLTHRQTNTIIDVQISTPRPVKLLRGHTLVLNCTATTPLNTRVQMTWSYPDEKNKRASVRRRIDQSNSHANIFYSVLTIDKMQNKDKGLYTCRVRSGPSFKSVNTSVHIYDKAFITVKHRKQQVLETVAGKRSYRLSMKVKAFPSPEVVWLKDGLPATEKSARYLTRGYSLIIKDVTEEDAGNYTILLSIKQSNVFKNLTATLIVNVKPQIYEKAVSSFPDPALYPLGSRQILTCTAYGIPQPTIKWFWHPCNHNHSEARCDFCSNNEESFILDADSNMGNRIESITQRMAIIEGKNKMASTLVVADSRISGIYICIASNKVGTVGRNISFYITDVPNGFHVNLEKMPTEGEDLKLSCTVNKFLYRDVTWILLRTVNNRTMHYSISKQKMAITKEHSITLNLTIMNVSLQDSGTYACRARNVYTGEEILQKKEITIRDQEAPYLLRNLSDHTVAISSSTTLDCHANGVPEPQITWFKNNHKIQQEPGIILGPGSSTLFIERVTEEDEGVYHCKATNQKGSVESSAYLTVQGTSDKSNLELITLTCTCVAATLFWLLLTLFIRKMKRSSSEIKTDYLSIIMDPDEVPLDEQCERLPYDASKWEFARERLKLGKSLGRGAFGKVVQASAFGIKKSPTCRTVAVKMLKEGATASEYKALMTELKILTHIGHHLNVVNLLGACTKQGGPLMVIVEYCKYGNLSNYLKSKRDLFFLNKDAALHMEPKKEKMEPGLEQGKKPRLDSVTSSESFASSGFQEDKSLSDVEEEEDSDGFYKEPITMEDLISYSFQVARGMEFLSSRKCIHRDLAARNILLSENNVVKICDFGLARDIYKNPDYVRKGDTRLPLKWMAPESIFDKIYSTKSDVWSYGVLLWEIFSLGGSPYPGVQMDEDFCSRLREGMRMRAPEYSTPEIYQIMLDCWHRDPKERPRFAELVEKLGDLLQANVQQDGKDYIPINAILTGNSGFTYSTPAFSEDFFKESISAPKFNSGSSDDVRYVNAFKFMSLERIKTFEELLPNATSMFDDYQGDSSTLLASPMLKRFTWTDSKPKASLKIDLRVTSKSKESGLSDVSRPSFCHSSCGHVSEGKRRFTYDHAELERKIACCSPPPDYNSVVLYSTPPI
Epidermal growth factor receptor (Homo sapiens), P00533 [L861Q], sequence (P00533 whole entry L861Q): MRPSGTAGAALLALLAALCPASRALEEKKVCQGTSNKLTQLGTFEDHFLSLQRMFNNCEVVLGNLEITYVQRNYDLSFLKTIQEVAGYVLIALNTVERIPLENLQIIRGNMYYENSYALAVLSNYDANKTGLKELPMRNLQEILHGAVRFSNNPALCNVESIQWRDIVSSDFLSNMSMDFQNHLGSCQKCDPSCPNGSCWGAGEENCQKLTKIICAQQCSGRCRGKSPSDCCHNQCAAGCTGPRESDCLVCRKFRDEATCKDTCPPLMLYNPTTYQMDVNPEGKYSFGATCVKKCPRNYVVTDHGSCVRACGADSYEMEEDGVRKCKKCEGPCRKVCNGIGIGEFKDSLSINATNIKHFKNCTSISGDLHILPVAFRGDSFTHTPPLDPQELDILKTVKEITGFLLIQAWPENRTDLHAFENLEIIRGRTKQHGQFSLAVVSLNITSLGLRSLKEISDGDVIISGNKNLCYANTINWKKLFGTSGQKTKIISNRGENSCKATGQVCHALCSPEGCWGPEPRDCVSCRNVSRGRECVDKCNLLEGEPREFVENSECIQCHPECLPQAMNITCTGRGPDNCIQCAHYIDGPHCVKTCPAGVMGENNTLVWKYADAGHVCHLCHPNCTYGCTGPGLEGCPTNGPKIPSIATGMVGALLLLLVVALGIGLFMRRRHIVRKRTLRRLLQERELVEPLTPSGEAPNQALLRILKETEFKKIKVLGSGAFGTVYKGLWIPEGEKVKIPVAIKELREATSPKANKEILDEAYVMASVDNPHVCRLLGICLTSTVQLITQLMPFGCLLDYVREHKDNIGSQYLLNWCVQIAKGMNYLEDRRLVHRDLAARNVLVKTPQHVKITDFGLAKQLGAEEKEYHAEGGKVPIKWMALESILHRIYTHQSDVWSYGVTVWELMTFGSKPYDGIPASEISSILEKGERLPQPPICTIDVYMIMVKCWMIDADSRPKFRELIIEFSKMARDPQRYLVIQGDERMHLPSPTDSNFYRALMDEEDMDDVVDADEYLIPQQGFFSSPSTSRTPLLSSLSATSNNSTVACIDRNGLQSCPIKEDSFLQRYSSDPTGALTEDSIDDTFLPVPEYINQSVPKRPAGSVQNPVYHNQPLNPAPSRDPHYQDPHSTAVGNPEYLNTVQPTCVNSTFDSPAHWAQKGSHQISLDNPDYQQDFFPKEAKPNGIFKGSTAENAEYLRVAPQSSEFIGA
Dual specificity protein kinase CLK1, sequence (P49759 whole entry): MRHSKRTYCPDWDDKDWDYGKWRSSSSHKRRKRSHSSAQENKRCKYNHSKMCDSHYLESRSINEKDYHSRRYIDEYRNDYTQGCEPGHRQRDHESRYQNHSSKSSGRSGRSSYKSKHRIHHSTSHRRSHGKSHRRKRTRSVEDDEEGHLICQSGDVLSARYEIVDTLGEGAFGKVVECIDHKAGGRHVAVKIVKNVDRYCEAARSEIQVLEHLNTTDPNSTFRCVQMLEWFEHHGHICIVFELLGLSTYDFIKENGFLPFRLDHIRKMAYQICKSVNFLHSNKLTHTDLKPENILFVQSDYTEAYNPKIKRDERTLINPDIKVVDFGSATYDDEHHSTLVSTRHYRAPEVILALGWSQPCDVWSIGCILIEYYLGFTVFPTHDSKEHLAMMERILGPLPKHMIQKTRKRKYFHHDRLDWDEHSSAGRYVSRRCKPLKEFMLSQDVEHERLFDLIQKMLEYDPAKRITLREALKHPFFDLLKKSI
MAP kinase-interacting serine/threonine-protein kinase 2, sequence (Q9HBH9 whole entry): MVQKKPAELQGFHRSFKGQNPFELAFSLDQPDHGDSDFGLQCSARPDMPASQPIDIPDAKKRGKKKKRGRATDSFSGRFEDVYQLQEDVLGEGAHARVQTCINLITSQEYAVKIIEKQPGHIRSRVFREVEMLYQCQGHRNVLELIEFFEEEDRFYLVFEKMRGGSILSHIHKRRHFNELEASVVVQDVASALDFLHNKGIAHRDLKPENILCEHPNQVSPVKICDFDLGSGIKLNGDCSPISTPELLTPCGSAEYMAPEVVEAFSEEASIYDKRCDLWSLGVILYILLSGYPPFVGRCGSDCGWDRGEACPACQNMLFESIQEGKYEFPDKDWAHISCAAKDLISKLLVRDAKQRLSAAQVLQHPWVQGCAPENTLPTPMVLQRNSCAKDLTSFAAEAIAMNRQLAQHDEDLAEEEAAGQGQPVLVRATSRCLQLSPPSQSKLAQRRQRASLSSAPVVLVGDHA

SMILES: Cc1cnc(-c2cc(Cl)ccc2F)cc1-n1c(=O)n(CC(N)=O)c2ccccc21 [Al11]
- Ki [1]: 1880 nM
- % of control [2]: 54%
- % of control [3]: 49%
- % of control [4]: 39.5%
- % of control [5]: 51%
- % of control [6]: 47%
- % of control [7]: 41%

SMILES: NC(=O)c1ccc2nc(-c3ccc(C4(N)CCC4)cc3)c(-c3ccccc3)n2n1 [BAY-1125976]
- Kd [8]: 330 nM
- Kd [9]: 310 nM
- Kd [10]: 210 nM

SMILES: CNC(=O)Nc1ccc2c(c1)[C@@]1(CC2)OC(=O)N(CC(=O)N(Cc2ccc(F)cc2)[C@@H](C)C(F)(F)F)C1=O [A-486]
- Ki [11]: 2580 nM
- % of control [12]: 28%
- % of control [13]: 41%
- % of control [14]: 0%
